According to patent publication US20080161389A1, “METHOD OF TREATING OCULAR HYPERTENSION AND INTESTINAL DISORDERS BY USING DIANHYDROHEXITE MONONITRATE DERIVATIVES” (LACER, S.A., priority 2006, published 2008):

Tests used:
[1] = system: Alfa-Chymotrypsin-Induced Glaucoma; test: Intraocular pressure in alfa-chymotrypsin-induced glaucoma; assay type: in vivo, rabbits; conditions: for intraocular pressure 0 hr: 0 h after 3 drops instillation; for intraocular pressure 0 hr / intraocular pressure 1 hr / intraocular pressure 2 hr: rabbits with alpha-chymotrypsin-induced glaucoma; for reduction of intraocular pressure (in words): 0.05%, similar to conventional compound at 10-fold lower concentration; for intraocular pressure 1 hr: 1 h after 3 drops instillation; for intraocular pressure 2 hr: 2 h after 3 drops instillation
Procedure: The method used was that described by Gabriele Campana, Claudio Bucolo, Giovanna Murari and Santi Spampinato in Pharmacol. Exp Therap Vol. 303, Issue 3, 1086-1094, December 2002
Animals were injected with intra muscular injection of dexamethasone at the dose rate of 10 mg/Kg body weight, to avoid immediate inflammation. Animals were anesthetized with ketamine (50 mg/kg IV) in combination with Dizepam.
Xylocaine (4%) was used for local anesthesia topically. A cannula attached to reservoir was inserted into the anterior chamber with the help of a 30 gauge needle to provide a hydrostatic pressure of 25 mmHg during injection of alpha-chymotrypsin. Then a second appropriately shaped 30 gauge needle was introduced near the pupil. Freshly prepared 150 units of alpha chymotrypsin prepared in 0.1 ml of sterile saline was irrigated through the cannula into the posterior chamber. Care was taken to prevent the contact of alpha chymotrypsin with corneal stroma. Both cannulas were carefully removed without significant loss of aqueous humor. Immediately after surgery the eye treated with Sofracort (Corticosteroid) to reduce the chances of fungal or microbial infection.
All the animals were kept under observation for 5 days and after these five days the intraocular pressure (IOP) was measured daily with a Schiontz type indentation tonometer using 5.5 gm weights and by compilation of readings the maximum period required to achieve a stable increase in IOP was determined. […] IOP was measured after 15 days for 3 consecutive days, every morning (at same time) to assure stable IOP.
All the animals were closely observed for the development of glaucoma. Thirty animals showing the symptoms of glaucoma and with the intra ocular pressure more than 30 mmHg were selected for the present investigation.
Compounds 2-acetylthioisosorbide-5-mononitrate and 2-[(R)-methylsulfinyl]isosorbide-5-mononitrate (0.05%) were administered to two different groups of rabbits at a concentration of 0.05% by weight [0.05g in 100 mL of saline serum] by 3 drops instillation. For comparative data, the compound Timolol (Timoftol®) widely used for the treatment of glaucoma, was also administered to another group of rabbits at a concentration of 0.5% by weight.
The intraocular pressure measurements are included in the table 2 in mm Hg taken at 0, 1 and 2 h after 3 drops instillation.

E. coli = test: Bacterial translocation (E. coli) in indomethacin-induced intestinal inflammation; assay type: in vivo; conditions: mice; for Bacterial translocation E. coli: number of positive cultures / total number of samples in group, mesenteric lymph nodes, 30 mg/kg orally
Procedure: (§1) Intestinal inflammation were induced by administration of two subcutaneous injections of 7.5 mg/kg indomethacin, as previously described Porras M., Martin M T., Soler M. and Vergara P., “Intestinal motor disorders associated with cyclical bacterial overgrowth in a rat model of enteritis”. Am. J. Physiol. Gastrointest. Liver Physiol. […] Am. J. Physiol. Gastrointest. Liver Physiol. (2006), 290:G423-G430.
(§2) Once the intestinal inflammation has been induced, one group of mice were treated with 30 mg of the compound 2-acetylthioisosorbide-5-mononitrate per kg of body weight, being dissolved this compound in water and administered orally. For comparative data, the compound isosorbide-5-mononitrate (IS-5-MN), structurally similar to 2-acetylthioisosorbide-5-mononitrate, was also administered to another group of mice.
(§3) Myeloperoxidase (MPO) activity was measured as an inflammation index in homogenized tissue samples after centrifugation using a specific ELISA kit (HyCult biotechnology, Uden, The Netherlands). In addition, since the barrier function of the intestinal mucus is deteriorated when the epithelium is inflamed and, as a consequence, the exposed bacteria cross the membrane and enter in the blood current, bacterial translocation was measured by detection of viable enteric bacteria in mesenteric lymph nodes as described by [M Mainous M R., Tso P., Berg R. D. and Deitch E. A., Arch Surg (1991) 126:33-37] as additional measure of inflammation degree.
(§4) Studies of the route, magnitude, and time course of bacterial translocation in a model of systemic inflammation were achieved as describe in Arch Surg 126:33-37, 1991. Bacterial translocation was expressed as the number of positive cultures with respect to the total number of samples in each group and motor activity was measured as the contracting activity expressed as the total number of spontaneous contractions recorded at duodenum per minute.

Myeloperoxidase (MPO) = Myeloperoxidase (MPO) activity as inflammation index in homogenized tissue samples (ELISA), indomethacin-induced intestinal inflammation; assay type: in vivo, mice; conditions: for MPO activity: homogenized tissue samples, mice, indomethacin-induced intestinal inflammation, 30 mg/kg orally
Procedure: as §1, §2, §3

duodenum = test: Motor activity: spontaneous contractions recorded at duodenum, indomethacin-induced intestinal inflammation; assay type: in vivo; conditions: spontaneous contractions recorded at duodenum per minute, mice, 30 mg/kg orally
Procedure: as §1, §2, §4

Enterococcus sp = test: Bacterial translocation (Enterococcus sp) in indomethacin-induced intestinal inflammation; assay type: in vivo; conditions: number of positive cultures / total number of samples in group, mesenteric lymph nodes, mice, 30 mg/kg orally
Procedure: as §1
Once the intestinal inflammation has been induced, one group of mice were treated with 30 mg of the compound 2-acetylthioisosorbide-5-mononitrate per kg of body weight, being dissolved this compound in water and administered orally. […]
as §3, with “degree. […]” for “degree.”

SMILES	intraocular pressure 0 hr [1]	reduction of intraocular pressure (in words) [1]	intraocular pressure 1 hr [1]	intraocular pressure 2 hr [1]	bacterial translocation (in words) (E. coli)	Bacterial translocation E. coli (E. coli)	reduction of MTO activity (in words) (Myeloperoxidase (MPO); compared to a structurally similar compound (IS-5-MN))	MPO activity (Myeloperoxidase (MPO))	Contractions/min (duodenum)	Bacterial translocation Enterococcus sp (Enterococcus sp)
CC(=O)S[C@H]1CO[C@H]2[C@@H]1OC[C@H]2O[N+](=O)[O-] [2-acetylthioisosorbide-5-mononitrate, 2-acetylthio-isosorbide-5-mononitrate]	34.33 ± 0.68 mm Hg	significantly reduce the intraocular pressure	24.72 ± 0.47 mm Hg	23.86 ± 0.32 mm Hg	also reduced	2/6	significant reduction	10 ± 2 ng/mL	0.2 ± 0.1 Contractions/min	1/6
O=[N+]([O-])O[C@@H]1CO[C@H]2[C@@H]1OC[C@@H]2O [IS-5-MN, isosorbide-5-mononitrate, reference compound]	–	–	–	–	–	3/6	–	19 ± 4 ng/mL	0.5 ± 0.1 Contractions/min	3/6
CC(C)(C)NC[C@H](O)COc1nsnc1N1CCOCC1 [Timolol, reference compound]	34.45 ± 0.58 mm Hg	–	24.77 ± 0.26 mm Hg	24.54 ± 0.26 mm Hg	–	–	–	–	–	–
C[S@@+]([O-])C1COC2C(O[N+](=O)[O-])COC21 (stereo partly drawn) [2-[(R)-methylsulfinyl]isosorbide-5-mononitrate]	33.87 ± 0.38 mm Hg	significantly reduce the intraocular pressure	23.51 ± 0.24 mm Hg	22.77 ± 0.19 mm Hg	–	–	–	–	–	–
